Where a name gives a salt, the structure may show the parent alone.
What was measured:
[1] = tested on: HCT116 cells; test: Inhibition of cancer cell proliferation (MTT, GIC50); format: cell-based; settings: Homo sapiens, HCT-116, 48 hours incubation
Method: HCT116 cells derived from human colorectal cancer were used, and an effect of a biguanide derivative on the inhibition of cancer cell proliferation was confirmed by measuring a concentration value (cell growth inhibition concentration, GIC50) at which 50% of the cell growth was inhibited using a 3-(4,5-dimethylthiazol-2-yl)-2,5-diphenytetrazolium bromide (MTT) reagent.
First, HCT116 cells were put on a 96-well plate and cultured in a DMEM medium containing 10% bovine serum for 24 hours to each have cell count of approximately 5000. Subsequently, to obtain the GIC50 value of each compound, 100 μM (or 200 μM), 25 μM, 6.25 μM, 1.56 μM or 0.39 μM of the compound was treated to each culture medium and then incubated for 48 hours. To confirm living cells after treatment with the compound, MTT was added to each culture medium and further incubated for 3 hours. Generated formazane crystal was dissolved using dimethyl sulfoxide (DMSO) and absorbance of the solution was measured at 560 nm. After the 48-hour incubation, a ratio of a cell count cultured on a well plate not treated with the compound to a cell count on a well plate treated with compounds synthesized in the examples was indicated as cell viability (%) according to each administered concentration. A cell viability curve was plotted using the cell viability (%), and the calculated concentration value (GIC50) of the compound, at which 50% of the growth was inhibited was, to confirm an effect on the inhibition of cancer cell proliferation.

[2] = tested on: 5′-AMP-activated protein kinase (AMPK); test: AMPK activation (AMPKα Thr172 phosphorylation immunoassay) in MCF7 cells; format: cell-based, human; settings: for AMPK Activation (phosphorylated AMPKα Thr172) / fold induction at 50 µM: MCF7 cells; for AMPK Activation (phosphorylated AMPKα Thr172): 24 hours; for fold induction at 50 µM: 24 h, 50 μM vs. 0 (cells without compound)
Method: MCF7 cells derived from human breast cancer cells were used, and an effect of a biguanide derivative on 5′-AMP-activated protein kinase (AMPK) activation was confirmed using an AMPKα immunoassay kit (Invitrogen, catalog No. KHO0651).
The MCF7 cells were put on a 6-well plate and incubated in a DMEM medium containing 10% fetal bovine serum in an incubator to which 5% CO2 was supplied to have a cell count of approximately 5×10^5. 50 μM of derivatives synthesized in the examples were treated to the each culture medium, and the cells were incubated for 24 hours. Subsequently, the cells were lysed by a method presented in the operation manual of the AMPKα immunoassay kit, and 20 μg of cell lysates were yielded through protein assay. A degree of phosphorylation of an AMPKα threonine 172nd residue (Thr172) from the cell lysates were confirmed according to a method presented in the operation manual of the AMPKα immunoassay kit to thereby obtain results.
In addition, an experiment was performed in the same manner as described in Experimental Example 2 using metformin as a control group, and the results of an effect on AMPK activation were compared to the effect on AMPK activation when 1 mM metformin was treated.

| Structure (SMILES) | IC50 [1] | AMPK Activation (phosphorylated AMPKα Thr172) ([2]; 50 μM compound) | fold induction at 50 µM ([2]; Homo sapiens) | melting point | AMPK Activation (phosphorylated AMPKα Thr172) ([2]; 1 mM metformin) | fold induction at 1000 µM ([2]; Homo sapiens, MCF7, 24 h, read-out: AMPK Activation fold) |
| --- | --- | --- | --- | --- | --- | --- |
| CCCCCCNC(=N)NC(=N)NCCC.Cl [Example 1, N1-hexyl-N5-propyl Biguanide Hydrochloride] | 23.8 µM | 35.6 | 6.7 | – | – | – |
| CCCCCCNC(=N)NC(=N)NCC1CCCCC1.Cl [Example 3, N1-hexyl-N5-cyclohexylmethyl Biguanide Hydrochloride] | > 100 µM | 13.1 | 1.9 | – | – | – |
| CCCCCCNC(=N)NC(=N)NCc1ccccc1.Cl [Example 4, N1-hexyl-N5-benzyl Biguanide Hydrochloride] | 8.4 µM | 15.5 | 6.2 | – | – | – |
| Cl.N=C(NC(=N)Nc1ccc(Cl)cc1)Nc1ccc(Cl)cc1 [Example 5, N1,N5-bis(4-chlorophenyl) Biguanide Hydrochloride] | 3.2 µM | – | – | 263 to 264 °C | – | – |
| Cl.N=C(NC(=N)Nc1cccc(Cl)c1)Nc1cccc(Cl)c1 [Example 6, N1,N5-bis(3-chlorophenyl) Biguanide Hydrochloride] | > 100 µM | 4.6 | 0.7 | 129 to 131 °C | – | – |
| COc1ccc(NC(=N)NC(=N)Nc2ccc(Cl)cc2)cc1 [Example 7, N1-(4-chloro)phenyl-N5-(4-methoxy)phenyl Biguanide Hydrochloride] | 18.3 µM | – | – | – | – | – |
| COc1ccc(NC(=N)NC(=N)Nc2ccc(OC)c(Cl)c2)cc1Cl.Cl [Example 8, N1,N5-bis(3-chloro-4-methoxyphenyl) Biguanide Hydrochloride] | 17 µM | – | – | 203 to 204 °C | – | – |
| Cl.N=C(NC(=N)Nc1ccc(Cl)c(Cl)c1)Nc1ccc(Cl)c(Cl)c1 [Example 9, N1,N5-bis(3,4-dichlorophenyl) Biguanide Hydrochloride] | 5.9 µM | – | – | 255 to 257 °C | – | – |
| Cl.N=C(NC(=N)Nc1cc(Cl)cc(Cl)c1)Nc1cc(Cl)cc(Cl)c1 [Example 10, N1,N5-bis(3,5-dichlorophenyl) Biguanide Hydrochloride] | 6.3 µM | – | – | 250 to 251 °C | – | – |
| Cl.N=C(NC(=N)Nc1ccc(Br)cc1)Nc1ccc(Br)cc1 [Example 11, N1,N5-bis(4-bromophenyl) Biguanide Hydrochloride] | 3.1 µM | – | – | 242 to 243 °C | – | – |
| Cl.N=C(NCc1ccccc1)NC(=N)NCc1cccnc1 [Example 12, N1-benzyl-N5-(pyridine-3-yl)methyl Biguanide Hydrochloride] | > 200 µM | 7.8 | 1.5 | 138 to 140 °C | – | – |
| CCCNC(=N)NC(=N)NCCc1ccccc1.Cl [Example 13, N1-(phenethyl)-N5-propyl Biguanide Hydrochloride] | 47.6 µM | 36.2 | 6.8 | 126 to 128 °C | – | – |
| Cl.N=C(NCCc1ccccc1)NC(=N)NCC1CC1 [Example 14, N1-(phenethyl)-N5-cyclopropylmethyl Biguanide Hydrochloride] | 47 µM | 31.2 | 5.9 | 143 to 146 °C | – | – |
| Cl.N=C(NCCc1ccccc1)NC(=N)NC1CCCCCC1 [Example 15, N1-(phenethyl)-N5-cycloheptyl Biguanide Hydrochloride] | 17.2 µM | 7.0 | 1.5 | 135 to 137 °C | – | – |
| Cl.N=C(NCCc1ccccc1)NC(=N)NCCc1ccccc1 [Example 16, N1,N5-bis(phenethyl) Biguanide Hydrochloride] | > 100 µM | 4.7 | 0.7 | 204 to 205 °C | – | – |
| CNC(=N)NC(=N)N(C)C.Cl [Example 17, N1,N1,N5-trimethyl Biguanide Hydrochloride] | > 200 µM | 5.5 | 1.1 | 175 to 177 °C | – | – |

| Structure (SMILES) | IC50 [1] | AMPK Activation (phosphorylated AMPKα Thr172) ([2]; 50 μM compound) | fold induction at 50 µM ([2]; Homo sapiens) | melting point | AMPK Activation (phosphorylated AMPKα Thr172) ([2]; 1 mM metformin) | fold induction at 1000 µM ([2]; Homo sapiens, MCF7, 24 h, read-out: AMPK Activation fold) |
| --- | --- | --- | --- | --- | --- | --- |
| CCCCNC(=N)NC(=N)N(C)C.Cl [Example 18, N1,N1-dimethyl-N5-butyl Biguanide Hydrochloride] | > 200 µM | 4.6 | 0.9 | 131 to 133 °C | – | – |
| CCC(C)NC(=N)NC(=N)N(C)C.Cl (stereo not drawn) [Example 19, N1,N1-dimethyl-N5-(butane-2-yl) Biguanide Hydrochloride] | > 200 µM | 3.6 | 0.7 | 110 to 112 °C | – | – |
| CN(C)C(=N)NC(=N)NC(C)(C)C.Cl [Example 20, N1,N1-dimethyl-N5-t-butyl Biguanide Hydrochloride] | > 200 µM | 4.6 | 0.9 | 186 to 187 °C | – | – |
| CCCCCNC(=N)NC(=N)N(C)C.Cl [Example 21, N1,N1-dimethyl-N5-pentyl Biguanide Hydrochloride] | > 200 µM | 5.6 | 1.1 | 131 to 133 °C | – | – |
| COC(=O)CCNC(=N)NC(=N)N(C)C.Cl [Example 22, N1,N1-dimethyl-N5-(methoxycarbonylethyl)biguanide Hydrochloride] | > 200 µM | 3.2 | 0.6 | 100 to 102 °C | – | – |
| CN(C)C(=N)NC(=N)NC1CCCCCC1.Cl [Example 23, N1,N1-dimethyl-N5-cycloheptyl Biguanide Hydrochloride] | > 200 µM | 5.4 | 1 | 132 to 133 °C | – | – |
| CN(C)C(=N)NC(=N)NCC1CC1.Cl [Example 24, N1,N1-dimethyl-N5-cyclopropylmethyl Biguanide Hydrochloride] | > 200 µM | 5.1 | 1 | 117 to 118 °C | – | – |
| CN(C)C(=N)NC(=N)Nc1ccc(Br)cc1.Cl [Example 25, N1,N1-dimethyl-N5-(4-bromo)phenyl Biguanide Hydrochloride] | > 100 µM | 23.1 | 4.4 | 272 to 273 °C | – | – |
| CN(C)C(=N)NC(=N)NCc1ccco1.Cl [Example 26, N1,N1-dimethyl-N5-(furan-2-yl)methyl Biguanide Hydrochloride] | > 200 µM | 8.9 | 1.7 | 176 to 177 °C | – | – |
| CN(C)C(=N)NC(=N)NCc1cccnc1.Cl [Example 27, N1,N1-dimethyl-N5-(pyridine-3-yl)methyl Biguanide Hydrochloride] | > 200 µM | 4.6 | 0.9 | 112 to 114 °C | – | – |
| CN(C)C(=N)NC(=N)NCc1ccccc1.Cl [Example 28, N1,N1-dimethyl-N5-benzyl Biguanide Hydrochloride] | > 200 µM | 5.9 | 1.2 | 151 to 152 °C | – | – |
| CN(C)C(=N)NC(=N)NCCc1ccccc1.Cl [Example 29, N1,N1-dimethyl-N5-(phenethyl) Biguanide Hydrochloride] | > 200 µM | 14.7 | 2.8 | 155 to 157 °C | – | – |
| CCCN(CCC)C(=N)NC(=N)Nc1cccc(Cl)c1.Cl [Example 31, N1,N1-dipropyl-N5-(3-chloro)phenyl Biguanide Hydrochloride] | 7.6 µM | – | – | 201 to 202 °C | – | – |
| CCCCCCN(CCCCCC)C(=N)NC(=N)Nc1cccc(Cl)c1 [Example 34, N1,N1-dihexyl-N5-(3-chloro)phenyl Biguanide Hydrochloride] | 7.8 µM | – | – | – | – | – |
| CN(C)C(=N)N=C(N)N [Metformin HCl, reference compound] | 2170 µM | – | – | – | 21.5 (@ 1 mM) | 3.2 |
